Measurements reported in patent US11932601B2, “Immunoregulatory agents” (FLEXUS BIOSCIENCES, INC., priority 2014, dated 2024).

target: T1, human IDO1 (Homo sapiens, UniProt P14902); assay: HEK293 cells stably expressing human IDO1, IDO inhibition assay (kynurenine, Ehrlich reagent, absorbance 490 nm); assay type: cell-based; settings: 20 hours incubation, 500 nM reference standard = 100% inhibition, read-out: HEK Human IDO-1 Biological Activity (IC50)
T1 construct: expressed in transfected cells
Method: HEK293 cells were transfected with a pCDNA-based mammalian expression vector harboring human IDO1 cDNA (NM 002164.2) by electroporation. They were cultured in medium (DMEM with 10% FBS) containing 1 mg/ml G418 for two weeks. Clones of HEK293 cells that stably expressed human IDO1 protein were selected and expanded for IDO inhibition assay.
The human IDO1/HEK293 cells were seeded at 10,000 cells per 50 μL per well with RPMI/phenol red free media contains 10% FBS in a 384-well black wall clear bottom tissue culture plate (Matrix Technologies LLC) 100 nL of certain concentration of compound was then added to each well using ECHO liquid handling systems. The cells were incubated for 20 hours in 37° C. incubator with 5% CO2.
The compound treatments were stopped by adding Trichloroacetic Acid (Sigma-Aldrich) to a final concentration at 0.2%. The cell plate was further incubated at 50° C. for 30 minute. The equal volume supernatant […] and 0.2% (w/v) Ehrlich reagent (4-dimethylaminobenzaldehyde, Sigma-Aldrich) in glacial acetic acid were mixed in a new clear bottom 384-well plate. This plate was then incubated at room temperature for 30 minute. The absorbance at 490 nm was measured on Envision plate reader.

T1 sequence (P14902 whole entry): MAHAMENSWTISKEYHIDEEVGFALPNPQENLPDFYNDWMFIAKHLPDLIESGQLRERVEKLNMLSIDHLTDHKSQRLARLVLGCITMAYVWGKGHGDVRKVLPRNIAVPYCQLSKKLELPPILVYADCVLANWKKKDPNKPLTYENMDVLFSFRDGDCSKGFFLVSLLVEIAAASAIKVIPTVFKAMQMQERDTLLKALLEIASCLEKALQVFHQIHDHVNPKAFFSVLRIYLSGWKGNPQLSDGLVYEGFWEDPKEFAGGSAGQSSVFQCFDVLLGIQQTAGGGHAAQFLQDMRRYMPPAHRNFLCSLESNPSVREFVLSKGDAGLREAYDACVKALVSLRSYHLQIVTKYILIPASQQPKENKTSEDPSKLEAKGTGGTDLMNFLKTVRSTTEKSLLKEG

| IC50 [µM] | Compound |
| --- | --- |
| > 0.25 | Cc1cc(C2CCC(C(C)C(=O)Nc3ccc(Cl)cc3)CC2)ccn1 (single isomer, unassigned) [Example 309a, N-(4-chlorophenyl)-2-(4-(2-methylpyridin-4-yl)cyclohexyl) propanamide] |
| < 0.05 | Cc1cc(C2CCC(C(C)C(=O)Nc3ccc(Cl)cc3)CC2)ccn1 (single isomer, unassigned) [Example 309b, N-(4-chlorophenyl)-2-(4-(2-methylpyridin-4-yl)cyclohexyl) propanamide] |
| > 0.25 | Cc1cc(C2CCC(C(C)C(=O)Nc3ccc(Cl)cc3)CC2)ccn1 (single isomer, unassigned) [Example 309c, N-(4-chlorophenyl)-2-(4-(2-methylpyridin-4-yl)cyclohexyl) propanamide] |
| < 0.05 | Cc1cc(C2CCC(C(C)C(=O)Nc3ccc(Cl)cc3)CC2)ccn1 (single isomer, unassigned) [Example 309d, N-(4-chlorophenyl)-2-(4-(2-methylpyridin-4-yl)cyclohexyl) propanamide] |
| < 0.05 | Cc1c(C2CCC(C(C)C(=O)Nc3ccc(Cl)cc3)CC2)ccnc1F (single isomer, unassigned) [Example 310a, (+/−)N-(4-chlorophenyl)-2-(4-(2-fluoro-3-methylpyridin-4-yl)cyclohexyl) propanamide] |
| < 0.05 | Cc1c(C2CCC(C(C)C(=O)Nc3ccc(Cl)cc3)CC2)ccnc1F (single isomer, unassigned) [Example 310b, (+/-)N-(4-chlorophenyl)-2-(4-(2-fluoro-3-methylpyridin-4-yl)cyclohexyl) propanamide] |
| < 0.05 | Cc1c(C2CCC(C(C)C(=O)Nc3ccc(Cl)cc3)CC2)ccnc1F (single isomer, unassigned) [Example 310c, N-(4-chlorophenyl)-2-(4-(2-fluoro-3-methylpyridin-4-yl)cyclohexyl) propanamide] |
| < 0.05 | Cc1c(C2CCC(C(C)C(=O)Nc3ccc(Cl)cc3)CC2)ccnc1F (single isomer, unassigned) [Example 310d, N-(4-chlorophenyl)-2-(4-(2-fluoro-3-methylpyridin-4-yl)cyclohexyl) propanamide] |
| < 0.05 | Cc1c(C2CCC(C(C)C(=O)Nc3ccc(Cl)cc3)CC2)ccnc1F (single isomer, unassigned) [Example 310e, N-(4-chlorophenyl)-2-(4-(2-fluoro-3-methylpyridin-4-yl)cyclohexyl) propanamide] |
| < 0.25 | Cc1c(C2CCC(C(C)C(=O)Nc3ccc(Cl)cc3)CC2)ccnc1F (single isomer, unassigned) [Example 310f, N-(4-chlorophenyl)-2-(4-(2-fluoro-3-methylpyridin-4-yl)cyclohexyl) propanamide] |
| < 0.05 | Cc1nccc(C2CCC(C(C)C(=O)Nc3ccc(Cl)cc3)CC2)c1C (single isomer, unassigned) [Example 311a, N-(4-chlorophenyl)-2-(4-(2,3-dimethylpyridin-4-yl)cyclohexyl) propanamide] |
| < 0.05 | Cc1nccc(C2CCC(C(C)C(=O)Nc3ccc(Cl)cc3)CC2)c1C (single isomer, unassigned) [Example 311b, N-(4-chlorophenyl)-2-(4-(2,3-dimethylpyridin-4-yl)cyclohexyl) propanamide] |
| > 0.25 | Cc1nccc(C2CCC(C(C)C(=O)Nc3ccc(Cl)cc3)CC2)c1C (single isomer, unassigned) [Example 311c, N-(4-chlorophenyl)-2-(4-(2,3-dimethylpyridin-4-yl)cyclohexyl) propanamide] |
| < 0.05 | Cc1nccc(C2CCC(C(C)C(=O)Nc3ccc(Cl)cc3)CC2)c1C (single isomer, unassigned) [Example 311d, N-(4-chlorophenyl)-2-(4-(2,3-dimethylpyridin-4-yl)cyclohexyl) propanamide] |
| < 0.25 | Cc1nccc(C2CCC(C(C)C(=O)Nc3ccc(Cl)cc3)CC2)c1C (single isomer, unassigned) [Example 311f, N-(4-chlorophenyl)-2-(4-(2,3-dimethylpyridin-4-yl)cyclohexyl) propanamide] |
| < 0.25 | CC(C(=O)Nc1ccc(Cl)cc1)C1CCC(c2ccnc(C(F)(F)F)c2)CC1 (single isomer, unassigned) [Example 312a, N-(4-chlorophenyl)-2-(4-(2-(trifluoromethyl)pyridin-4-yl)cyclohexyl) propanamide] |
| < 0.05 | CC(C(=O)Nc1ccc(Cl)cc1)C1CCC(c2ccnc(C(F)(F)F)c2)CC1 (single isomer, unassigned) [Example 312b, N-(4-chlorophenyl)-2-(4-(2-(trifluoromethyl)pyridin-4-yl)cyclohexyl) propanamide] |
| < 0.05 | CC(C(=O)Nc1ccc(Cl)cc1)C1CCC(c2ccnc(C(F)(F)F)c2)CC1 (single isomer, unassigned) [Example 312c, N-(4-chlorophenyl)-2-(4-(2-(trifluoromethyl)pyridin-4-yl)cyclohexyl) propanamide] |
| < 0.25 | CC(C(=O)Nc1ccc(Cl)cc1)C1CCC(c2ccnc(C(F)(F)F)c2)CC1 (single isomer, unassigned) [Example 312d, N-(4-chlorophenyl)-2-(4-(2-(trifluoromethyl)pyridin-4-yl)cyclohexyl) propanamide] |

The remaining lines, values behind:

| Compound | IC50 [µM] |
| --- | --- |
| CCC(C(=O)Nc1ccc(Cl)cc1)[C@H]1CC[C@H](Oc2ccncc2C(F)(F)F)CC1 (mixture of isomers) [Example 305, N-(4-Chlorophenyl)-2-(trans-4-((3-(trifluoromethyl)pyridin-4-yl)oxy)cyclohexyl)butanamide] | > 0.25 |
| CCC(C(=O)Nc1ccc(Cl)cc1)[C@H]1CC[C@@H](Oc2ccncc2)CC1 (mixture of isomers) [Example 306, N-(4-Chlorophenyl)-2-(cis-4-(pyridin-4-yloxy)cyclohexyl)butanamide] | < 0.05 |
| CC(C(=O)Nc1ccc(Cl)cc1)[C@H]1CC[C@H](Oc2ccnc(C(F)(F)F)c2)CC1 (mixture of isomers) [Example 323, (+/−)-N-(4-chlorophenyl)-2-(trans-4-((2-(trifluoromethyl)pyridin-4-yl)oxy)cyclohexyl) propanamide] | < 0.05 |
| CCC(C(=O)Nc1ccc(Cl)cc1)[C@H]1CC[C@H](Oc2ccncc2C(F)(F)F)CC1 (single isomer, unassigned) [Example 305a, N-(4-Chlorophenyl)-2-((1r,4r)-4-((3-(trifluoromethyl)pyridin-4-yl)oxy)cyclohexyl)-2λ^3-butanamide] | > 0.25 |
| CCC(C(=O)Nc1ccc(Cl)cc1)[C@H]1CC[C@H](Oc2ccncc2C(F)(F)F)CC1 (single isomer, unassigned) [Example 305b, N-(4-Chlorophenyl)-2-((1r,4r)-4-((3-(trifluoromethyl)pyridin-4-yl)oxy)cyclohexyl)-2λ^3-butanamide] | < 0.05 |
| CCC(C(=O)Nc1ccc(Cl)cc1)[C@H]1CC[C@@H](Oc2ccncc2)CC1 (single isomer, unassigned) [Example 306a, N-(4-Chlorophenyl)-2-(cis-4-(pyridin-4-yloxy)cyclohexyl)butanamide] | < 0.05 |
| CCC(C(=O)Nc1ccc(Cl)cc1)[C@H]1CC[C@@H](Oc2ccncc2)CC1 (single isomer, unassigned) [Example 306b, N-(4-Chlorophenyl)-2-(cis-4-(pyridin-4-yloxy)cyclohexyl)butanamide] | > 0.25 |
| COc1cc([C@H]2CC[C@@H]([C@H](C)C(=O)Nc3ccc(Cl)cc3)CC2)ccn1 (single isomer, unassigned) [Example 307c, N-(4-Chlorophenyl)-2-(4-(2-methoxypyridin-4-yl)cyclohexyl)propanamide] | < 0.05 |
| COc1cc([C@H]2CC[C@@H]([C@H](C)C(=O)Nc3ccc(Cl)cc3)CC2)ccn1 (single isomer, unassigned) [Example 307d, N-(4-Chlorophenyl)-2-(4-(2-methoxypyridin-4-yl)cyclohexyl)propanamide] | < 0.05 |
| COc1cc([C@H]2CC[C@@H]([C@H](C)C(=O)Nc3ccc(Cl)cc3)CC2)ccn1 (single isomer, unassigned) [Example 307e, N-(4-Chlorophenyl)-2-(4-(2-methoxypyridin-4-yl)cyclohexyl)propanamide] | < 0.25 |
| COc1cc([C@H]2CC[C@@H]([C@H](C)C(=O)Nc3ccc(Cl)cc3)CC2)ccn1 (single isomer, unassigned) [Example 307f, N-(4-Chlorophenyl)-2-(4-(2-methoxypyridin-4-yl)cyclohexyl)propanamide] | < 0.05 |
| Cc1cc(C2CCC(C(C)C(=O)Nc3ccc(Cl)cc3)CC2)cc(C)n1 (single isomer, unassigned) [Example 308a, N-(4-chlorophenyl)-2-(4-(2,6-dimethylpyridin-4-yl)cyclohexyl) propanamide] | < 0.25 |
| Cc1cc(C2CCC(C(C)C(=O)Nc3ccc(Cl)cc3)CC2)cc(C)n1 (single isomer, unassigned) [Example 308b, N-(4-chlorophenyl)-2-(4-(2,6-dimethylpyridin-4-yl)cyclohexyl) propanamide] | < 0.05 |
| Cc1cc(C2CCC(C(C)C(=O)Nc3ccc(Cl)cc3)CC2)cc(C)n1 (single isomer, unassigned) [Example 308c, N-(4-chlorophenyl)-2-(4-(2,6-dimethylpyridin-4-yl)cyclohexyl) propanamide] | > 0.25 |
